Source: patent publication US10434134B2, “Peptide treatment for inflammation and fibrosis” (The Regents of the University of California, priority 2015, dated 2019)
Where a SMILES comes first, the peptide text is derived from it. Where no end group is shown, it is not given here. [ ]: non-standard residue; d: D form. Mpa = O=C(O)CCS

Key:
[1] = Plasma levels of peptide and MPR-intermediate after IV PEGylated-peptide 361332; format: in vivo; details: CD-1 mouse, n = 1
Text: Studies using the PEGylated-peptide 361332 are provided
Levels of Peptide and MPR-Intermediate in Plasma Samples

[2] = test system: Mouse Activated Liver Myofibroblasts; test: Cell death of activated primary mouse liver myofibroblasts in culture; format: cell-based
Mouse toxicity (in vivo) = details: for Mouse Toxicity (in vivo): 20 mg/kg
Text: (§1) Assays were used in a step-wise manner to select the safest and most efficient peptides (including apoptosis assays in activated primary human liver myofibroblasts; cell-free caspase 8 activation assays; acute liver injury/fibrogenesis models; toxicology assays in highly differentiated, primary human hepatocyte cultures and in mice).

[3] = test system: primary mouse and human hepatocytes
Text: as §1

[4] = test system: Human Activated Liver Myofibroblasts; test: Cell death of activated primary human liver myofibroblasts in culture; format: cell-based; design: concentration or dose not given beside the values
Text: as §1

[5] = test system: Bleomycin-induced lung fibrosis in C/EBPβ-wt mice; test: Bleomycin mouse model of lung fibrosis, various administration routes (Example 11); format: in vivo; details: for decrease in lung fibrosis: days 10, 17 and 24
Procedure: C/EBPβ-wt mice received Bleomycin administration as described above. On day-10, once the fibrotic reaction is established, mice received i) PEG-30 kDa-Lys-DAla-DVal-Asp-NH2 intraperitoneally (IP) 10 μg of peptide linked to PEG, on days 10, 17 and 24); or ii) peptide PEG-30 kDa-Lys-DAla-DVal-Asp-NH2 by inhalation (mean particle size […]—which reaches efficiently the alveoli-, 800 μg of peptide on days 10, 17 and 24; specific inhalation parameters are shown in Table 2). The peptide was administered for less than 1 hour a day [on days 10, 17, and […]] via nose-only inhalation of the test material aerosol at a nominal concentration of 1.0 mg/L [800 μg/dose]; or iii) peptide PEG-30 kDa-Lys-DAla-DVal-Asp-NH2 by intratracheal instillation (40 μg of peptide on days 10, 17 and 24).
Control groups received sterile water instead of Bleomycin; peptide IP; peptide by inhalation; or peptide by intratracheal instillation. Animals were sacrificed on day 27. The left lung was inflated with fixative, analyzed by trichrome stain and quantified in its entirety by the Odyssey Visualization microscopy software protocol to minimize analytical errors as described previously (Ramamoorthy et al., 2009, American Journal of Physiology, Endocrinology and Metabolism 297: e392-401). The right lung was snap frozen in liquid nitrogen and used for IMH, immunoblots and qRT-PCR.

[6] = test system: CCl4-induced liver fibrosis in mice; test: Chronic 16-wk CCl4 mouse model of liver fibrosis (Example 2); format: in vivo; details: for decrease of liver fibrosis / Liver fibrosis, quantification of the Sirius stain (percentage fibrosis/area): CCl4 16-wk; for decrease of liver fibrosis: 7 μg IP once per week from week-8; for Liver fibrosis, quantification of the Sirius stain (percentage fibrosis/area): 7 μg peptide linked to 420 μg PEG-30 kDa once a week from week-8, n=6/group
Procedure: FIGS. 2A-2B. High efficacy of the therapeutic PEG-30 kDa-peptides in a chronic mouse model of liver fibrosis. All groups of mice (except control) received CCl4 administration for 16-wk (n=6/group). The CCl4 treatment group received only the hepatotoxin, while the other groups also received the indicated therapeutic PEG-30 kDa-peptide (7 μg of peptide linked to 420 μg PEG-30 kDa once a week) starting at week-8. FIG. 2A. Liver fibrosis was determined by quantification of the Sirius stain (percentage fibrosis/area) as described (7; 25): control (0.02+/−0.01); lead peptide (0.8+/−0.7); alternate peptide 1 (2.1+/−1.0); alternate peptide 2 (3.5+/−1.2) and CCl4 (6.7+/−1.6%). P<0.0001 for lead peptide 1 and P<0.001 for alternate peptides 1 and 2. FIG. 2B. Liver fibrosis was detected histologically by the trichrome stain for liver fibrosis as it is the clinical standard. The control animals (receiving only vehicle control) had negligible fibrosis (stage 0-1/VI); animals receiving CCl4 for 16 weeks developed severe fibrosis (stage 5/VI or 6/VI; which would be clinically significant in patients); while animals receiving CCl4 for 16 weeks and also the lead PEG-30 kDa-peptide 1 starting at week-8 had minor fibrosis (stage 1-2/VI; which would not be clinically significant in patients).
The therapeutic lead PEG-peptides underwent a systematic analysis of efficacy and safety in a classical chronic liver fibrosis model (7; 15; 24; 38). CCl4 (a human hepatotoxin) was administered to mice for 16-wk as a classical model of liver fibrosis (7). The three selected therapeutic PEG-peptides were administered once a week IP (7 μg of peptide linked to PEG) starting at week 8, once severe liver fibrosis was already established. The efficacy of the three selected PEG peptides included quantitative analysis of liver fibrosis (7). CCl4 administration to mice for 16-wk induced liver cirrhosis (FIGS. 2A and 2B). […] This mimics the treatment given for several years to a patient with established severe liver fibrosis.
The Ac-Lys-D-Ala-D-Val-Asp-NH2 was administered IP (7 μg of peptide linked to PEG-30 kDa) once/week for an additional 4 or 8 weeks. The CCl4 administration continued for 4 or 8 weeks. The Ac-Lys-D-Ala-D-Val-Asp-NH2 peptide inhibited liver fibrosis by 8-fold.
The parent peptide inhibited liver fibrosis by only 2 to 3-fold.

[7] = test system: CCl4-induced acute liver injury in mice; test: Acute CCl4 liver injury and activation of liver myofibroblasts in mice (Example 1); format: in vivo, mouse; design: serum ALT: unit not given here; details: for minimizing acute liver injury and activation of myofibroblasts: compared with the lead PEG peptide
Procedure: FIG. 1. The therapeutic lead peptide inhibits the activation of liver myofibroblasts and liver injury that induces fibrosis following exposure to the human hepatotoxin CCl4. A single dose of CCl4 was administered to C/EBPβ-wt mice (4). Eight hours later, animals received an IP injection of the therapeutic lead peptide (5 μg of peptide linked to PEG). Animals were sacrificed at 30 hr after the CCl4 administration. The animals receiving only CCl4 had intense activation of myofibroblasts (as determined by α-SMA) (upper row) and severe liver injury (as assessed by standard clinical examination just before sacrifice); the lead peptide blocked the discoloration and granular appearance of severe liver injury. The livers of treated mice were similar to control (second row). The histopathology induced by CCl4 was activation of myofibroblasts (α-SMA), severe liver injury (H&E stain) with collapse of the architecture (Reticulin stain). The therapeutic PEG-30 kDa-peptide decreased both the activation of myofibroblasts and the injury to the liver.
To induce acute liver injury, a single dose of the human hepatotoxin Carbon Tetrachloride (CCl4) was administered to normal mice (4). Eight hours later, animals received an IP injection of the lead therapeutic PEG-30 kDa-peptide (5 μg of the peptide linked [peptide to PEG at 1:60] to the PEG-30 kDa). Animals were sacrificed after 30 hr, at the peak of hepatocyte death as measured by ALT (a clinical end-point used routinely in clinical practice and by the FDA in the evaluation of liver toxicity in human drug studies) (16). […] There was severe acute liver injury in animals receiving CCl4 but mild-to-moderate injury in animals receiving both CCl4 and the lead therapeutic compound (FIG. 1).

[8] = liver, 30 hr after CCl4, single IP 5 μg at 8 hr

Question: Which “Conc. (ng/mL) in plasma” value ([1]; 4 hours after IV PEGylated-peptide 361332, 7.5 mg/kg peptide equivalent) does the source give for `CC(C)[C@@H](NC(=O)[C@@H](C)NC(=O)[C@H](CCCCN)NC(=O)CCS)C(=O)N[C@@H](CC(=O)O)C(N)=O` [Mpr-Lys-DAla-DVal-Asp-NH2] ([Mpa]K[dA][dV]D-NH2) here?
Answer: 1291 ng/mL

Question: And the “Conc. (ng/mL) in plasma” value ([1]; 8 hours after IV PEGylated-peptide 361332, 7.5 mg/kg peptide equivalent)?
Answer: 900 ng/mL

Question: And the “Conc. (ng/mL) in plasma” value ([1]; 24 hours after IV PEGylated-peptide 361332, 7.5 mg/kg peptide equivalent)?
Answer: 921 ng/mL

Question: What about the “Conc. (ng/mL) in plasma” value ([1]; 48 hours after IV PEGylated-peptide 361332, 7.5 mg/kg peptide equivalent) of the same compound?
Answer: 1523 ng/mL

Question: With “Ac-Lys-Ala-Val-Asp-NH2 (Ac-KAVD-NH2) [Parent peptide, reference compound]” as the compound, how does the “Mouse Activated Liver Myofibroblasts Death Cell (%) [20 ng/ml]” value [2] read?
Answer: 89.5%

Question: What about the “Mouse Toxicity (in vivo)” value (Mouse toxicity (in vivo)) of the same compound?
Answer: No:

Question: What about the “toxicity issues observed in mice” value (Mouse toxicity (in vivo); mouse, in vivo) of the same compound?
Answer: no toxicity issues

Question: What about the “Hepatocyte Toxicity [20 ng/ml]” value [3] of the same compound?
Answer: No toxicity

Question: And the “Human Activated Liver Myofibroblasts Death Cell (%)” value [4]?
Answer: 80.9%

Question: What does the source list for “PEG-30 kDa-Lys-DAla-DVal-Asp-NH2 [Lead therapeutic peptide]”?
Answer: inhibition in lung alveolar epithelial cell apoptosis ([5]; IP): ~60%; surfactant protein-C (SFPC) expression by quantitative IHC ([5]; IP): essentially normal; decrease in lung fibrosis ([5]; IP 10 μg of peptide linked to PEG): ~60%; lung inflammation as determined by the expression of IL-23R (marker of Th-17 cells) ([5]; all treatments (IP, inhalation, intratracheal)): decreased; improvement of Tidal Volume ([5]; all treatments (IP, intratracheal instillation, inhalation), 14-day treatment): > 35%; inhibition in lung alveolar epithelial cell apoptosis ([5]; inhalation): ~60%; surfactant protein-C (SFPC) expression by quantitative IHC ([5]; inhalation): essentially normal; decrease in lung fibrosis ([5]; inhalation 800 μg of peptide): ~60%; efficacy on lung fibrosis ([5]; intratracheal instillation 40 μg of peptide, days 10, 17 and 24 (therapeutic positive control)): outstanding efficacy; TGFβ1 by RT-PCR ([5]; three peptide formulations): decreased; collagen α 1 by RT-PCR ([5]; three peptide formulations): decreased; decrease of liver fibrosis [6]: > 8 fold; Liver fibrosis, quantification of the Sirius stain (percentage fibrosis/area) [6]: 0.8+/−0.7%; Liver fibrosis stage, trichrome stain ([6]; CCl4 16 weeks, peptide starting at week-8): 1-2 /VI; Mouse Activated Liver Myofibroblasts Death Cell (%) [20 ng/ml] [2]: 90.5%; Mouse Toxicity (in vivo) (Mouse toxicity (in vivo)): No:; serum ALT ([7]; 30 hr after CCl4, single IP treatment (5 μg peptide linked to PEG-30 kDa) 8 hr after CCl4): 6,754+/−905; acute liver injury severity ([7]; CCl4 plus peptide, 30 hr): mild-to-moderate; expression of α-SMA in the liver (activated liver myofibroblasts) ([7]; CCl4 plus peptide, 30 hr): minor expression; IL-6 mRNA [7, 8]: normal; TNF-α mRNA, increase from control values [7, 8]: 4 fold; albumin mRNA, decrease from control values [7, 8]: 2 fold; Hepatocyte Toxicity [20 ng/ml] [3]: No toxicity; Human Activated Liver Myofibroblasts Death Cell (%) [4]: 86.2%

Question: What does the source list for “Peg-30kDa-Lys-Ala-DVal-Asp-NH2 [Alternate therapeutic peptide 2]”?
Answer: decrease of liver fibrosis [6]: ~2 fold; Liver fibrosis, quantification of the Sirius stain (percentage fibrosis/area) [6]: 3.5+/−1.2%; Mouse Activated Liver Myofibroblasts Death Cell (%) [20 ng/ml] [2]: 57.1%; minimizing acute liver injury and activation of myofibroblasts [7]: performed similarly to the lead PEG peptide; Hepatocyte Toxicity [20 ng/ml] [3]: No toxicity; Human Activated Liver Myofibroblasts Death Cell (%) [4]: 72.3%

Question: For “Peg-30kDa-Lys-DAla-Val- Asp-NH2 [Alternate therapeutic peptide 1]”, which “decrease of liver fibrosis” value [6] is on record?
Answer: ~3 fold

Question: What about the “Liver fibrosis, quantification of the Sirius stain (percentage fibrosis/area)” value [6] of the same compound?
Answer: 2.1+/−1.0%

Question: And the “Mouse Activated Liver Myofibroblasts Death Cell (%) [20 ng/ml]” value [2]?
Answer: 79.9%

Question: What about the “minimizing acute liver injury and activation of myofibroblasts” value [7] of the same compound?
Answer: performed similarly to the lead PEG peptide

Question: And the “Hepatocyte Toxicity [20 ng/ml]” value [3]?
Answer: No toxicity

Question: And the “Human Activated Liver Myofibroblasts Death Cell (%)” value [4]?
Answer: 67.9%

Question: Which “Human Activated Liver Myofibroblasts Death Cell (%)” value [4] does the source give for [dK]AV[dD]-NH2 here?
Answer: 44.0%

Question: Which “Human Activated Liver Myofibroblasts Death Cell (%)” value [4] does the source give for [dK]A[dV]D-NH2 here?
Answer: 30.6%
